Data published in patent publication US4954156A, “N,N-dihalo-2-imidazolidinones and N-halo-2-oxazolidinones as urease and nitrification inhibitors” (Tennessee Valley Authority, priority 1989, dated 1990).
Several values for one entry are separate records, joined by “and”; a condition that tells them apart may be missing. Equal values may be shown once.

What was measured:
[1] = target: purified Jack Bean urease (Canavalia ensiformis, UniProt P07374); assay: Aqueous system (pH stat) urease inhibition test; assay type: biochemical; settings: 25° C
Protocol: (§1) Embodiment 1: Urease activity of inhibitor test compounds may be evaluated either in aqueous or in soil systems. When aqueous systems are used, urea plus a test compound with possible urease inhibition activity and relatively pure urease enzyme are incubated together to determine the effects of the test compound on urease-catalyzed hydrolysis of urea. When soil systems are used, urea and the test compound are added to moist soil, and the urease enzyme is supplied from the soil. The main disadvantage of using soil systems is that the true activity of test compounds may be masked because of reactions between the test compound and soil. Thus, basic studies for understanding chemical structure-activity relationships are usually done in aqueous systems.
Aqueous System (pH Stat) Test Procedure: The aqueous system urease inhibition tests were conducted at 25° C using purified Jack Bean urease enzyme, 50,000-80,000 units per gram, a unit of urease will liberate 1 umole of NH3 from urea per minute at pH 7.0 at 25° C.
An appropriate amount of inhibitor [such as 37.0 uL (microliters) of a 1.169×10^(-3) M (moles/liter) inhibitor solution] and 100 uL of a solution of 13.9130 mg Jack Bean urease enzyme in 10.00 mL of water were diluted to 25.00 mL. This combined solution was allowed to sit undisturbed at 23° C. for twenty (20) minutes. Then 20.0 uL of a preservative solution was added to prevent degradation of the urease enzyme during the course of the experiment. The preservative solution contained 5.655×10^-4 moles/liter ethylenediaminetetraacetic acid (disodium salt) and 1.166×10^-3) moles/liter dithiothreitol.
Immediately after the addition of the preservative solution to the inhibitor/urease solution, 800 uL of a 0.1246 M urea solution was added and a computer assisted titrimeter was started. This titrimeter maintained a constant pH of 6.97 during the course of the experiment by neutralizing the ammonia (resulting from urease hydrolysis of urea) with 0.01142 M hydrochloric acid (HCl). The volume (measured to 0.001 mL) of HCl added was automatically recorded every 15 seconds for up to 20.0 minutes or until a total volume of 2.500 mL of HCl was added.
Experiments also were conducted without inhibitor (blank) and with the inhibitor PPDA for comparison. The experiments were replicated, and the percent inhibition for each of the inhibitors at the various concentrations was calculated as follows:
% inhibition=(kinhibitor /kblank)×100 (4)
where kinhibitor and kblank are the average rates of HCl addition for the inhibitor and blank experiments, respectively. The rates of HCl addition were calculated by linear regression of the titration curves.

[2] = system: nitrification of ammonium nitrogen in soil; assay: Soil nitrification inhibition test (Mountainview silt loam, banded); settings: for % inhibition (nitrification) / Net mg NO2N / Net mg NO3N: 25° C, 410 mg urea + 41 mg inhibitor; for Nitrite accumulation in the soil: during the 5 weeks incubation, greater than with dicyandiamide
Protocol: Embodiment 2: The N-Halamine compounds were tested for nitrification inhibition using the soil testing procedure described below.
Mountainview silt loam soil was screened through a 2 mm sieve. Plexiglas containers (8×8×6 cm) were packed half full with the soil and packed to a bulk density of 1.0 g/cm^3 and wetted to field capacity (approximately 20 weight percent moisture). The urea 410 mg per container) and inhibitor (41 mg per container) were added in a narrow band (0.5 cm wide X 6 cm long), and additional soil was added to fill the containers. The total amount of dry soil added was 384 g. The containers were incubated at 25° C. During incubation the containers were checked periodically for moisture loss and additional water added as needed to maintain moisture levels.
The individual containers were removed from the incubator at 1, 2, 3, 4, and 5 week intervals. After removal from the incubator the contents of the container were transferred to a plastic bag and thoroughly mixed. A 10-g sample of soil (dry basis) was taken from the bag and extracted with 100 ml of 2 N KCL. The extract was filtered through Whatman #41 filter paper and refrigerated until analyzed. Samples were analyzed for NO3-N- NO2-N- and urea-N using a colorimetric procedure. Some samples also were analyzed for NH4-N.
The percent nitrification inhibition was calculated according to the method of Bundy and Bremner [G. L. Bundy and J. M. Bremner, Soil Sci. Soc. Am. Proc. 37, 396-398 (1973)]
% nitrification inhibition=[(C-S)/C]×100
where C=net amount of NO3-N produced in the control (no inhibitor added), and S=net amount of NO3-N produced in the inhibitor treated sample.
^a Concentrations are in net mg/container. All containers had 384 g
soil (dry), 410 mg urea (188.6 mg N) and 41 mg inhibitor. Samples were
extracted 10 g → 100 mls 2N KCl. The formulas used for calculation
where C = net NO3N produced in control (no inhibitor), S = net
NO3N produced in inhibitor treated sample, net NO3N =
(NO3N) - (soil NO3N), and net NO2N = (NO2N) - (soil
NO2N). Values are averages of two replicate samples.

[3] = system: soil urease (urease-active Hastings silt loam soil); assay: Banded soil system urease inhibition test (Hastings silt loam); settings: 410 mg urea + 41 mg inhibitor
Protocol: as §1
Soil System Test Procedure: The soil system test procedure used was a modification of the previous procedures of other researchers L. A. Douglas and J. M. Bremner, Soil Biol. Biochem. 3, 309-315 (1971) and J. M. Bremner and R. L. Mulvaney, "Urease Activity in Soils," Soil Enzymes 5, R. G. Burns, editor, Academic Press, 149-195 (1978)]. In this modified procedure powdered mixtures of urea and test compounds were applied in narrow bands in the soil rather than being mixed throughout the soil. The banded configuration also results in concentration gradients of urea, urea hydrolysis products, test compounds, and test compound decomposition products similar to those in the immediate vicinity of urea granules containing the test compounds. Another advantage of the banded configuration compared with mixing throughout the soil is that slightly soluble test compounds can be easily band applied, whereas it is difficult to achieve a known degree of mixing of a small quantity of slightly soluble test compound with soil. The banded configuration also enables testing for urease inhibition under realistic soil conditions prior to the development of techniques for cogranulating a wide range of test compounds with urea.
A detailed description of the banded soil testing procedure follows. Urease-active soil (Hastings silt loam) was moistened to a moisture content of 20 percent dry weight basis) and preincubated at room temperature for two days. Plexiglas containers (6×6×6 cm) were half filled with soil and packed to a bulk density of 1.0 g/cm . Urea (410 mg) or urea (410 mg) plus inhibitor (41 mg, thoroughly mixed with the urea) was distributed in a narrow band about 0.5 cm wide and 6 cm long on the soil surface. The containers then were filled with soil, again packing to a bulk density of 1.0 g/cm^3. The containers were incubated at 25° C. for the desired reaction period, after which the containers were frozen to about -5° C. to stop urea hydrolysis. Immediately prior to extracting the remaining urea from the soil, said soil was allowed to thaw. Soil from each container was thoroughly mixed, and a 10-g sample was extracted with 100 ml of 2 M KCl containing phenylmercuric acetate to prevent urea hydrolysis during handling [L. A. Douglas and J. M. Bremner, Soil. Sci. Soc. Am. Proc. 34, 859-862 (1970)]. Urea in the extracts was determined colorimetrically as a measure of unhydrolyzed urea and the results expressed as percent unhydrolyzed urea-N.
^a The plexiglas containers measured 6 × 6 × 6 cm.
Hastings silt loam soil was utilized and packed to a bulk density of 1
gm/cm^3 dry basis. The soil was wet to near field capacity (20%
moisture) and 260 g of wetted soil (216 g dry soil) was added per
container. The containers were packed half full, urea and inhibitor were
added, and the remaining soil was added. The amount of urea added = 410 m

Sequence of purified Jack Bean urease (P07374 whole entry, looked up): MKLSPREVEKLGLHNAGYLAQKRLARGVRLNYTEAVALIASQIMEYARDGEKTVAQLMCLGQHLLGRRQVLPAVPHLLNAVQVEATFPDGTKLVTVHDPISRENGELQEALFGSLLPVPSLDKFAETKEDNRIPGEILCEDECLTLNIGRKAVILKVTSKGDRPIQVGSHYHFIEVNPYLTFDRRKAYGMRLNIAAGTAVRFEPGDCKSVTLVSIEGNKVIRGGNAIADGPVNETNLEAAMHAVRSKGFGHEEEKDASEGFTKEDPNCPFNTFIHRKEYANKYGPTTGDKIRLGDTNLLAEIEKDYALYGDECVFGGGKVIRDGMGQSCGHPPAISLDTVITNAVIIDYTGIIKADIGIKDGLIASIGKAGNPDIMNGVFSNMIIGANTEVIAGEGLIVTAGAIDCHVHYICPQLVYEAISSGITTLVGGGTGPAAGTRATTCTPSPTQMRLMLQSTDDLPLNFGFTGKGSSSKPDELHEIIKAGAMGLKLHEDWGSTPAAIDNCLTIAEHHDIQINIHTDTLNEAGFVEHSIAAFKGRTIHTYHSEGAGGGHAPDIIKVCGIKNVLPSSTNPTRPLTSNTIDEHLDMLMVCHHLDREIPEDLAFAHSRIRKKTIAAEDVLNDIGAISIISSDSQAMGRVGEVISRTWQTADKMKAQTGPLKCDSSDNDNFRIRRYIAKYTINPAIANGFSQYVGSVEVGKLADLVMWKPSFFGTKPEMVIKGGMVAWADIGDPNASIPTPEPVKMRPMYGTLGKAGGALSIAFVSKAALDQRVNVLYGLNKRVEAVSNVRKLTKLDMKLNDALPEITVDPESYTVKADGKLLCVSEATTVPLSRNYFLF

SMILES	% unhydrolyzed urea-N ([3]; 3 days incubation at 25° C)	PPM urea-N ([3]; 3 days incubation at 25° C) [PPM]	% unhydrolyzed urea-N ([3]; 6 days incubation at 25° C)	PPM urea-N ([3]; 6 days incubation at 25° C) [PPM]	% inhibition (nitrification) ([2]; 1 week) [%]	Net mg NO2N ([2]; 1 week) [mg/container]	Net mg NO3N ([2]; 1 week) [mg/container]	% inhibition (nitrification) ([2]; 2 weeks) [%]	Net mg NO2N ([2]; 2 weeks) [mg/container]	Net mg NO3N ([2]; 2 weeks) [mg/container]	% inhibition (nitrification) ([2]; 3 weeks) [%]	Net mg NO2N ([2]; 3 weeks) [mg/container]	Net mg NO3N ([2]; 3 weeks) [mg/container]	% inhibition (nitrification) ([2]; 4 weeks) [%]	Net mg NO2N ([2]; 4 weeks) [mg/container]	Net mg NO3N ([2]; 4 weeks) [mg/container]	% inhibition (nitrification) ([2]; 5 weeks) [%]	Net mg NO2N ([2]; 5 weeks) [mg/container]	Net mg NO3N ([2]; 5 weeks) [mg/container]	Nitrite accumulation in the soil [2]	further results
CC1(C)N(Cl)C(=O)N(Cl)C1(C)C [A, 1,3-dichloro-4,4,5,5-tetramethyl-2-imidazolidinone]																					% urease inhibition ([1]; inhibitor 1.440 x 10^-8 moles/experiment): 86%; % urease inhibition ([1]; inhibitor 2.160 x 10^-8 moles/experiment): 95%; % urease inhibition ([1]; inhibitor 4.320 x 10^-8 moles/experiment): 100%; percent nitrification inhibition ([2]; separate experiment (Examples VII, IX): sampled only at end of 5-week incubation, no dicyandiamide comparison): 41.8%
CC1(C)N(Br)C(=O)N(Br)C1(C)C [AB, 1,3-dibromo-4,4,5,5-tetramethyl-2-imidazolidinone]	70.59% and 70.6%	62.5	15.02% and 15.0%	13.3	100.0	-0.05	0.0	100.0	0.04	0.0	100.0	0.03	0.0	100.0	0.82	0.0	98.3	2.63	3.1	well within plant tolerance levels	
N#CN=C(N)N [Dicyandiamide, dicyandiamide, reference compound]					78.2	0.17	4.6	88.6	0.19	17.7	87.4	0.01	22.7	87.4	0.01	22.7	90.0	-0.02	18.4		% inhibition (nitrification) ([2]; 5 weeks, listed as dicyandiamide): 90%
CC1(C)COC(=O)N1Cl [I, 3-chloro-4,4-dimethyl-2-oxazolidinone]	82.45% and 82.4%	73.0	56.47% and 56.5%	50.0	74.4	0.28	5.4	68.9	0.49	48.4	4.9	0.07	171.3	-2.8	0.02	185.5	-1.5	-0.01	187.4		% inhibition (nitrification) ([2]; 5 weeks, listed as 3-chloro-4,4-dimethyl-2-oxazolidinone): 0%; nitrification inhibition effect ([2]; after three weeks): almost completely exhausted
CC1(C)COC(=O)N1Br [IB, 3-bromo-4,4-dimethyl-2-oxazolidinone]	65.51% and 65.5%	58.0	10.05% and 10.0%	8.9	100.0	-0.02	0.0	100.0	0.06	0.0	100.0	0.12	0.0	100.0	0.52	0.0	99.6	2.64	0.8	well within plant tolerance levels	% inhibition (nitrification) ([2]; 1 week, listed as 3-bromo-4,4-dimethyl-2-oxazolidinone): 100%
NP(N)(=O)Oc1ccccc1 [PPDA, Phenyl phosphorodiamidate, reference compound]	94.31% and 94.3%	83.5	58.73% and 58.7%	52																	% urease inhibition ([1]; inhibitor 0.108 x 10^-8 moles/experiment): 99%; % urease inhibition ([1]; inhibitor 0.216 x 10^-8 moles/experiment): 100%
